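Cells were grown in 96-well plates and exposed to each compound for 48 hours at five concentrations; endpoints were interpolated linearly between bracketing concentrations, or set to the highest concentration if not reached. Abbreviation: GI50, concentration required for 50% inhibition of growth.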 The source made the active and inactive calls. Rule as the data show it: active = GI50 up to about 1.1 µM and inactive = higher.
Legend:
Assay in all cases: inhibition of tumour cell growth, NCI panel, 48 h
[1] = system: 786-0
[2] = system: A498
[3] = system: A549
[4] = system: ACHN
[5] = system: BT-549
[6] = system: CAKI-1
[7] = system: CCRF-CEM
[8] = system: COLO 205
[9] = system: DU-145
[10] = system: EKVX
[11] = system: HCC 2998
[12] = system: HCT-116
[13] = system: HCT-15
[14] = system: HL-60
[15] = system: HOP-62
[16] = system: HOP-92
[17] = system: HT-29
[18] = system: Hs-578T
[19] = system: IGROV-1
[20] = system: K562
[21] = system: KM12
[22] = system: LOX IMVI
[23] = system: M14
[24] = system: MCF7
[25] = system: MDA-MB-231
[26] = system: MDA-MB-435
[27] = system: MDA-N
[28] = system: MOLT-4
[29] = system: Malme-3M
[30] = system: NCI-H226
[31] = system: NCI-H23
[32] = system: NCI-H460
[33] = system: NCI-H522
[34] = system: NCI/ADR-RES
[35] = system: OVCAR-3
[36] = system: OVCAR-4
[37] = system: OVCAR-5
[38] = system: OVCAR-8
[39] = system: PC-3
[40] = system: RXF 393
[41] = system: SF-268
[42] = system: SF-295
[43] = system: SF-539
[44] = system: SK-MEL-28
[45] = system: SK-MEL-2
[46] = system: SK-MEL-5
[47] = system: SK-OV-3
[48] = system: SN12C
[49] = system: SNB-19
[50] = system: SNB-75
[51] = system: SW-620
[52] = system: T47D
[53] = system: TK-10
[54] = system: U-251
[55] = system: UACC-257
[56] = system: UACC-62
[57] = system: UO-31
[58] = system: RPMI-8226
[59] = system: SR

Measured: GI50

CC(NNC(=O)c1ccncc1)c1ccc(F)cc1 (centres undefined)
inactive: [1] > 100 µM | [2] > 100 µM | [3] > 100 µM | [4] > 100 µM | [5] > 100 µM | [6] > 100 µM | [7] > 100 µM | [8] > 100 µM | [9] > 100 µM | [10] > 100 µM | [11] > 100 µM | [12] > 100 µM | [14] 80 µM | [15] > 100 µM | [16] > 100 µM | [17] > 100 µM | [18] > 100 µM | [19] > 100 µM | [20] > 100 µM | [21] > 100 µM | [22] > 100 µM | [23] 41.8 µM | [24] > 100 µM | [25] > 100 µM | [26] > 100 µM | [27] > 100 µM | [28] 6.65 µM | [29] > 100 µM | [30] > 100 µM | [31] > 100 µM | [32] > 100 µM | [33] > 100 µM | [34] > 100 µM | [35] > 100 µM | [36] > 100 µM | [37] > 100 µM | [38] > 100 µM | [39] > 100 µM | [40] > 100 µM | [41] > 100 µM | [42] > 100 µM | [43] > 100 µM | [44] > 100 µM | [45] > 100 µM | [46] > 100 µM | [47] > 100 µM | [48] > 100 µM | [49] > 100 µM | [50] > 100 µM | [51] > 100 µM | [52] > 100 µM | [53] > 100 µM | [54] > 100 µM | [55] > 100 µM | [56] > 100 µM | [57] > 100 µM
> 100 µM: [13]

CC(O)C1OC(O)C2OC(C)(C)OC12 (centres undefined)
inactive: [1] > 100 µM | [2] > 100 µM | [3] > 100 µM | [4] > 100 µM | [5] > 100 µM | [6] > 100 µM | [7] > 100 µM | [8] > 100 µM | [9] > 100 µM | [10] > 100 µM | [12] > 100 µM | [14] > 100 µM | [15] > 100 µM | [17] > 100 µM | [18] > 100 µM | [19] > 100 µM | [20] > 100 µM | [21] > 100 µM | [22] > 100 µM | [23] > 100 µM | [24] > 100 µM | [25] > 100 µM | [26] > 100 µM | [27] > 100 µM | [28] > 100 µM | [30] > 100 µM | [31] > 100 µM | [32] > 100 µM | [33] > 100 µM | [34] > 100 µM | [35] > 100 µM | [36] > 100 µM | [37] > 100 µM | [38] > 100 µM | [39] > 100 µM | [58] > 100 µM | [41] > 100 µM | [42] > 100 µM | [43] > 100 µM | [44] > 100 µM | [45] > 100 µM | [46] > 100 µM | [47] > 100 µM | [48] > 100 µM | [49] > 100 µM | [50] > 100 µM | [59] > 100 µM | [51] > 100 µM | [52] > 100 µM | [53] > 100 µM | [54] > 100 µM | [55] > 100 µM | [56] > 100 µM | [57] > 100 µM
> 100 µM: [13]

N/C(=N\NC(=O)c1nc2ccccc2s1)c1ccccn1
inactive: [1] 4.33 µM | [2] 8.34 µM | [3] 3.19 µM | [4] 2.87 µM | [5] 31.3 µM | [6] 1.55 µM | [7] 2.42 µM | [8] 4.73 µM | [9] 4.27 µM | [10] 3.68 µM | [11] 8.17 µM | [12] 3.28 µM | [15] 10.3 µM | [16] > 34 µM | [17] 4.08 µM | [18] > 100 µM | [19] 12.8 µM | [20] 4.5 µM | [21] 8.79 µM | [22] 4.93 µM | [23] 3.01 µM | [24] 4.39 µM | [25] 14 µM | [26] 7.1 µM | [27] 11.7 µM | [28] 1.29 µM | [29] 30 µM | [31] 9.86 µM | [32] 2.85 µM | [33] 13.8 µM | [35] 3.92 µM | [37] 5.89 µM | [38] 5.33 µM | [39] 9.31 µM | [58] 2.46 µM | [40] 7.96 µM | [41] 6.87 µM | [42] 3.83 µM | [43] 3.59 µM | [44] 43.2 µM | [45] 19.5 µM | [46] 4.24 µM | [47] 9.79 µM | [48] 1.61 µM | [49] 16 µM | [50] 7.74 µM | [51] 6.82 µM | [52] 10.6 µM | [53] 7.8 µM | [54] 4.79 µM | [55] 15.6 µM | [56] 3.95 µM | [57] 2.26 µM
active: [14] 0.452 µM | [34] 1.11 µM | [36] 0.706 µM
2.56 µM: [13]

— ChEMBL document CHEMBL1201862, “PubChem BioAssay data set” (2004)
